“Also recorded” adds a separate entry of the source.
Assays:
human alpha4beta2 nAChRs [1] = target: T1, human alpha4beta2 nAChRs (Homo sapiens, UniProt P17787+P43681); assay: Positive allosteric modulation of agonist-evoked currents, two-electrode voltage clamp in Xenopus oocytes (Example 1); format: cell-based; settings: for positive allosteric modulator activity in the presence of compound 1 hemi-galactarate dihydrate: 1 μM PAM; for dependence of potentiation on the order of agonist and PAM application: agonist compound 1 hemi-galactarate dihydrate; for maximal current evoked by compound 1 hemi-galactarate dihydrate / shift of the concentration activation curve to compound 1 hemi-galactarate dihydrate: presence vs absence of 1 μM PAM
T1 construct: expressed in transfected cells; host or cells: Xenopus laevis oocytes (cDNA injection)
Procedure: • Acetylcholine chloride • 100 mM stock solution in bi-distilled water 1.3 Test system • Apparatus: Automated Injection and Recording Apparatus, HiQScreen • Species of donor animals: Xenopus • Strain of animals: Laevis • Origin (supplier) of animals: HiQScreen Sàrl, Geneva • Body Weight of animals: 150 g to 300 g • Animal maintenance 3 to 5 per vivarium • Room temperature: 20-22° C. • Lighting times: Vivarium were exposed to daylight with additional artificial lighting (6 am-8 pm in summer; 8 am-7 pm in winter). • Food: Food pellets, ad libitum • Source of biological material • and isolation procedure: Abdominal incision to remove ovaries • Experimental conditions in Oocyte incubation: Barth solution containing in mM NaCl 88, • vitro: […] OR2 medium containing in mM: […] Two-electrode voltage clamp, using proprietary automated system equipped with a Geneclamp amplifier (Axon Instrument, Foster City, Calif., USA), or HiClamp (Multichannel Systems, Germany) Abbreviations: Ach, Acetylcholine; nAChR, Nicotinic acetylcholine receptor; SEM, Standard error of the mean; PAM, Positive allosteric modulator All experiments were carried out at human nAChRs expressed in Xenopus oocytes using the method of cDNA expression. Xenopus oocytes were prepared and injected using standard procedures. Briefly, ovaries were harvested from Xenopus Laevis females that have been deeply anesthetized by cooling at 4° C. and Tricaine methanesulfonate (MS-222 at a concentration of 150 mg/L) in sodium bicarbonate (300 mg/L). Once anesthetized the animal was decapitated and pithed following the rules of animal rights from the Geneva canton. […] All recordings were performed at 18° C. and cells superfused with OR2 medium containing in mM: […] Currents evoked by ACh or other agonists were recorded using an automated process equipped with standard two-electrode voltage-clamp configuration (TEVC). Data were captured and analyzed using a HiQScreen proprietary data acquisition and analysis software running under Matlab (Mathworks Inc.). […] Compounds were dissolved in OR2 as stock solution (1 mM) and the final dilution to the desired concentration was made on the day of the experiment. Injections of cDNAs encoding for the human alpha4beta2, were performed in at least 95 oocytes were performed using a proprietary automated injection device (Hogg et al., J. Neurosci. Methods, 2008) and receptor expression examined at least two days later. Oocytes were poked with two electrodes and their membrane potential maintained, unless indicated, at −80 mV throughout the experiment. A protocol to determine the allosteric modulation at the alpha4beta2 nAChRs in the oocytes expressing the receptor was developed. Oocytes expressing alpha4beta2 nAChRs were exposed to increasing concentrations of ACh while the response was evaluated. This was repeated with the addition of a fixed concentration of the allosteric modulator. The current evoked from the exposure to the agonist with the modulator was recorded and compared to currents evoked in the absence of the modulator. To assess the effects of positive allosteric modulators (Br-PBTC and NS-9283) a protocol of determination of the concentration activation curve in absence and presence of the PAM was designed. […] To assess the positive allosteric modulator effects of NS-9283 at the compound 1 hemi-galactarate dihydrate the same experimental protocol was conducted using 1 μM of the modulator. […] To further evaluate the PAM effects, the modulation was measured either as a first application and compared versus the subsequent agonist evoked response or, vice versa, by first exposing the cell to the agonist alone and then to the PAM and the agonist applied during a sustained PAM exposure. […] The same experiment was then conducted for compound 1 hemi-galactarate dihydrate as the agonist and Br-PBTC as the modulator or NS-9283 as the modulator.

human alpha4beta2 nAChRs [2] = target: T1, human alpha4beta2 nAChRs; assay: Desensitization by sustained (1 hour) agonist exposure and recovery, without and with PAM, Xenopus oocytes (Example 1); format: cell-based; settings: for effect of PAM on recovery from varenicline tartrate desensitization: 300 μM varenicline tartrate 1 hour, wash of 3 hours; for effect of PAM on recovery from varenicline tartrate desensitization / effect of PAM on amplitude of the current evoked by varenicline tartrate: 1 μM PAM; for effect of PAM on amplitude of the current evoked by varenicline tartrate: 300 μM varenicline tartrate; for effect of PAM on profile of compound 1 hemi-galactarate dihydrate desensitization and recovery: 1 mM agonist, co-application of 1 μM modulator

T1 sequence (P43681 29-627 limits assumed): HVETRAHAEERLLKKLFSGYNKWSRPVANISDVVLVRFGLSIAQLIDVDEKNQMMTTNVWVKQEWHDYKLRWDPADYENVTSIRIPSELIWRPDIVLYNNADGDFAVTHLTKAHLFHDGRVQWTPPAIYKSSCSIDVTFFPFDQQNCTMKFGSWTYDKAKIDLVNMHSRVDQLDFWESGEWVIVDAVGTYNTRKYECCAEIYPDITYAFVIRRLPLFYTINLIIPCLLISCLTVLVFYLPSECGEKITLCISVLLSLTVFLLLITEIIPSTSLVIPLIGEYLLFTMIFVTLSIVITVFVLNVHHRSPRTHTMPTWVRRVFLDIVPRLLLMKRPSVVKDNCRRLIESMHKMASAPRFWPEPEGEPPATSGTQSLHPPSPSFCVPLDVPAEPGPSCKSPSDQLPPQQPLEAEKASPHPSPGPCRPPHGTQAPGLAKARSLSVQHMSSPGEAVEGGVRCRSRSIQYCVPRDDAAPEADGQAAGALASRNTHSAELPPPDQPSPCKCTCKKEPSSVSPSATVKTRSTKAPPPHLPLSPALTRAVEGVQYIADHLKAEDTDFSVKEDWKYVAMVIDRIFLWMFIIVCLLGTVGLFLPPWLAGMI
T1 sequence (P17787 26-502): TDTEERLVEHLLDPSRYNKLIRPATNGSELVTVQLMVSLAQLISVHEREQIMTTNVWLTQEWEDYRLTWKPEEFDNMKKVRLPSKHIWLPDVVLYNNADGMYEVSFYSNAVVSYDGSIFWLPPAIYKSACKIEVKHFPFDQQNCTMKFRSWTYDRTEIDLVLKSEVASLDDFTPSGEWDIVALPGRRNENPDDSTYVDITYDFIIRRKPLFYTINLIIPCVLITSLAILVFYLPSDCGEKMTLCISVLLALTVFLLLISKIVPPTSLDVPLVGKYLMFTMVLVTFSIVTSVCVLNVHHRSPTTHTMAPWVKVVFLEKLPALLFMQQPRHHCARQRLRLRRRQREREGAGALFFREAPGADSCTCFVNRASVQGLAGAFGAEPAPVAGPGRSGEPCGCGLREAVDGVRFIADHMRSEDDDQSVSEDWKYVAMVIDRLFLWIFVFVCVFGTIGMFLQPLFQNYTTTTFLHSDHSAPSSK

| Structure (SMILES) | positive allosteric modulator activity in the presence of compound 1 hemi-galactarate dihydrate (human alpha4beta2 nAChRs [1]) | dependence of potentiation on the order of agonist and PAM application (human alpha4beta2 nAChRs [1]) | maximal current evoked by compound 1 hemi-galactarate dihydrate (human alpha4beta2 nAChRs [1]) | shift of the concentration activation curve to compound 1 hemi-galactarate dihydrate (human alpha4beta2 nAChRs [1]) | effect of PAM on recovery from varenicline tartrate desensitization (human alpha4beta2 nAChRs [2]) | effect of PAM on amplitude of the current evoked by varenicline tartrate (human alpha4beta2 nAChRs [2]) | effect of PAM on profile of compound 1 hemi-galactarate dihydrate desensitization and recovery (human alpha4beta2 nAChRs [2]) |
| --- | --- | --- | --- | --- | --- | --- | --- |
| N#Cc1cccc(-c2nc(-c3cccnc3)no2)c1 [NS-9283, 3-[3-(3-Pyridinyl)-1,2,4-oxadiazol-5-yl]benzonitrile] | acts as a positive allosteric modulator; also recorded: potentiate the agonistic activity | independent on the exposure protocol | no significant increase | significant shift to the left | failed to significantly modify the recovery time course | enhanced the response | minimal effect |
| O=C(N[C@@H]1CCCNC1)c1cc2cccc(Br)c2s1 [Br-PBTC, (R)-7-bromo-N-(piperidin-3-yl)benzo[b]thiophene-2-carboxamide] | acts as a positive modulator; also recorded: potentiate the agonistic activity | independent on the exposure protocol | increase of the maximal evoked current; also recorded: increase of the amplitude of the current | significant shift to the left; also recorded: shifted to the left | almost complete recovery within 3 hours; also recorded: almost full recovery; also recorded: partially reversed | largely enhanced | minimal effect |

Source: US20210379066A1, “COMBINATIONS OF POSITIVE ALLOSTERIC MODULATORS AND NICOTINIC ACETYLCHOLINE RECEPTOR AGONISTS FOR TREATING OCULAR CONDITIONS” (Oyster Point Pharma, Inc., priority 2018, published 2021)
